The results in this text go back to US20160194274A1, “PHENANTHRENE DERIVATIVES FOR USE AS MEDICAMENTS” (VALENTIA BIOPHARMA, priority 2012, published 2016).

For one assay, the system named is UGGAA FAM-RNA probe. Description: Gel retardation assay with FAM-UGGAA probe (SCA31). Type of assay: binding. On the procedure: (§1) FIG. 9. VLT002 binding assessment in additional toxic repeats linked to disease through hairpin formation.
(§2) Fluorescence Electrophoretic Mobility Shift Assay to test RNA-compound binding. Briefly, an aliquot of carboxyfluorescein (FAM)-CUG10 RNA (DM1, HDL2, SCA8; see FIG. 6) was heated at 70° C. for 5 min and diluted to 300 nM. The binding reaction with compounds was then carried out as described in (Garcia-Lopez A et al. Proc. Natl. Acad. Sci. USA. 108(29):11866-71 (2011)). The reaction mix was loaded onto 8% polyacrylamide nondenaturing gels, and electrophoresis was conducted at 4° C. in TB 1× for approximately 30 min at 240V, followed by fluorescence visualization. Quantification of the free RNA band intensity was carried out using the ImageJ software. A non-linear regression analysis was used to calculate EC50, based on a total of three experimental replicates. Same approach was developed with (FAM)-CCUG8 (DM2), CAG10 (SCA3), CGG10 (FXTAS), GGGGCC5 (ALS/FSD), UGGAA6 (SCA31) probes (see FIG. 9).

The test system of another assay is CCUG FAM-RNA probe. Description: Gel retardation assay with FAM-CCUG probe (DM2). It is filed as binding. On the procedure: as §1, §2
The subject of the next assay is CGG FAM-RNA probe. Description: Gel retardation assay with FAM-CGG probe (FXTAS). Type of assay: binding. On the procedure: as §1, §2
Another assay deals with Clcn1 protein. Description: Immunofluorescent detection of Clcn1 protein in HSA LR mouse quadriceps. Type of assay: in vivo. Particulars: 100 μg. On the procedure: FIG. 8. Recovering of disease phenotypes (molecular, histological and functional) in in vivo DM1 mice (HSA^LR). Upper section: VLT002 and VLT025 suppressed splicing defects in DM1 mouse skeletal muscles. VLT002 (10 μg) and VLT025 (100 μg) were intramuscular injected in the right tibialis anterior (TA) and left quadriceps (Q), respectively, of HSA^LR mice that expressed 300 CTG repeats. […] All graphs show the mean and SEM from VLT002 and VLT025-responsive animals. Middle section: Immunofluorescent detection of trans-membrane Clcn1 protein (cell outlines in gray) in quadriceps sections of no-DM1 mouse (control) and HSA^LR mice without treatment (10150.5 QD-DMSO treated) and after VLT025 treatment (10150.5 QI).
Also, an immunohistochemistry approach was used to measure ClC-1 protein levels (see FIG. 8 middle) in mouse tissues (skeletal muscle). Briefly, frozen sections of tibialis anterior & quadriceps muscle were prepared for routine immunostaining by using antibody against the ClC-1 protein (Alpha Diagnostic, San Antonio, Tex.). Primary antibody concentration used was 1:50 for ClC-1. Secondary antibody was goat anti-rabbit Alexa Fluor 488 and 546 (Invitrogen) at 1:400. Stacks of Z plane images were processed by using a blind point spread function. […]

Take `CN(C)CCc1cc2c(c3c1ccc1ccccc13)OCO2` [VLT002, Stephenanthrine]: in the assay with UGGAA FAM-RNA probe, the “binding to UGGAA (SCA31) probe” value is given as “caused retention of the complex in the well”. In the assay on CCUG FAM-RNA probe, the “binding to CCUG (DM2) probe” value is “caused retention of the complex in the well”. Moreover, in the assay with CGG FAM-RNA probe, the “binding to CGG (FXTAS) probe” value was “caused retention of the complex in the well”.

As to `C[N+](C)(C)CCc1cc2c(c3c1ccc1ccccc13)OCO2` [VLT025], the “Clcn1 fluorescent signal vs DMSO-treated contra-lateral limb” value in the assay on Clcn1 protein was “significantly stronger”.
